Publication PMC8512368, “Alpha-Glucosidase Inhibitory Assay-Screened Isolation and Molecular Docking Model from Bauhinia pulla Active Compounds” (Molecules, 2021)
Like-named read-outs stand apart in the source and are kept apart here.

Target: T1, alpha-glucosidase enzyme from Saccharomyces cerevisiae (EC 3.2.1.20) (Saccharomyces cerevisiae, UniProt P53341)
T1 construct: purchased Sigma-Aldrich
Assay: biochemical
Assay type: biochemical
Description: Briefly, the enzyme from Saccharomyces cerevisiae (EC 3.2.1.20) and the pNPG substrate were dissolved in 0.1 M phosphate buffer (pH 7), which was enriched by bovine serum albumin and sodium azide. Standards and samples were suspended in 20% (v/v) of DMSO in a water solution. In a 96-well plate, 50 µl of PBS, standards, samples and enzyme solutions were mixed and incubated for 2 min at 37 °C. At last, 50 µl of 4 mM pNPG was added and incubated for 5 min before the kinetic parameter measurement, as described earlier.
The velocity was examined by a linear relationship equation between absorbance and time, Equation (1).
The percent inhibition was determined for the highest velocity as:% Inhibition = (V control − V sample)/(V control) × 100(2)
The IC50 value was calculated by using a calibration curve equation between samples at five different concentrations and inhibition percentages.

[1] = isolated compounds (Table 2), read-out: IC50 (converted)

T1 sequence (P53341 whole entry): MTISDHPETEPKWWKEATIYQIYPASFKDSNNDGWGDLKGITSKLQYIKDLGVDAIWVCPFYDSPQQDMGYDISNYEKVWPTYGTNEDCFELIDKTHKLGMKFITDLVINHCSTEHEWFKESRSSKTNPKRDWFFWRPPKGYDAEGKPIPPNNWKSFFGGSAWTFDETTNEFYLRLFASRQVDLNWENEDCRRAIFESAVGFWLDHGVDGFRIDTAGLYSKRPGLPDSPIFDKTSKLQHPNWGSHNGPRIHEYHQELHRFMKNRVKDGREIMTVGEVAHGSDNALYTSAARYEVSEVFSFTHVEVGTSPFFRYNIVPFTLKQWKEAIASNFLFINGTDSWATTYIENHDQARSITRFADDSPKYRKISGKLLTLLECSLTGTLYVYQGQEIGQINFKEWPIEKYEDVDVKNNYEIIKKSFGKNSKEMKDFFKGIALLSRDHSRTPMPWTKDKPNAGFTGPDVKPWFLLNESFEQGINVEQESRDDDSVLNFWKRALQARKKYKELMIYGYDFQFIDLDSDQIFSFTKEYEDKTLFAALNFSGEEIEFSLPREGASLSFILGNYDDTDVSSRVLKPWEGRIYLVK

| Structure (SMILES) | IC50 [1] | IC50 fold higher compared to luteolin (ratio of IC50 values) | IC50 | inhibitory activity drop compared with quercetin (sugar moiety added) (ratio of IC50 values) |
| --- | --- | --- | --- | --- |
| COc1ccc(/C=C/C(=O)c2ccc(O)cc2O)cc1 [4-methyl ether isoliquiritigenin] | 814 µM |  |  |  |
| O=c1cc(-c2ccc(O)c(O)c2)oc2cc(O)ccc12 [5-deoxyluteolin] | 2130 µM | 3.5 fold |  |  |
| C[C@@H]1O[C@@H](Oc2c(-c3ccc(O)c(O)c3)oc3cc(O)cc(O)c3c2=O)[C@H](O)[C@H](O)[C@H]1O [Quercitrin, quercitrin] |  |  | 111 µM | roughly 10 fold |

More lines, main results first:

| IC50 [1] | Structure (SMILES) | IC50 fold higher compared to luteolin (ratio of IC50 values) | IC50 | inhibitory activity drop compared with quercetin (sugar moiety added) (ratio of IC50 values) |
| --- | --- | --- | --- | --- |
| 4450 µM | COc1ccc(/C=C/C(=O)c2ccc(O)cc2O)cc1O [3,2’ ,4’-trihydroxy-4-methoxychalcone, 3,2’,4’-trihydroxy-4-methoxychalcone] |  |  |  |
| 573 µM | O=c1cc(-c2ccc(O)c(O)c2)oc2cc(O)cc(O)c12 [Luteolin, luteolin] |  |  |  |
